According to patent US9630922B2, “3-spiro-7-hydroxamic acid tetralins as HDAC inhibitors” (Forma Therapeutics, Inc., priority 2015, dated 2017):

target: T1, HDAC6 (Homo sapiens, UniProt Q9UBN7); assay: In vitro Histone Deacetylase Assay (enzymatic HDAC6 electrophoretic mobility shift assay); assay type: biochemical; conditions: full length human recombinant HDAC6, 1 nM enzyme, 2 μM peptide substrate RHKK(Ac)-NH2, 25° C.; read-out: HDAC6 activity range
T1 construct: Full length human recombinant HDAC6 protein was expressed in baculoviral system; made in house; host or cells: baculoviral system
T1 sequence (Q9UBN7 1-1215): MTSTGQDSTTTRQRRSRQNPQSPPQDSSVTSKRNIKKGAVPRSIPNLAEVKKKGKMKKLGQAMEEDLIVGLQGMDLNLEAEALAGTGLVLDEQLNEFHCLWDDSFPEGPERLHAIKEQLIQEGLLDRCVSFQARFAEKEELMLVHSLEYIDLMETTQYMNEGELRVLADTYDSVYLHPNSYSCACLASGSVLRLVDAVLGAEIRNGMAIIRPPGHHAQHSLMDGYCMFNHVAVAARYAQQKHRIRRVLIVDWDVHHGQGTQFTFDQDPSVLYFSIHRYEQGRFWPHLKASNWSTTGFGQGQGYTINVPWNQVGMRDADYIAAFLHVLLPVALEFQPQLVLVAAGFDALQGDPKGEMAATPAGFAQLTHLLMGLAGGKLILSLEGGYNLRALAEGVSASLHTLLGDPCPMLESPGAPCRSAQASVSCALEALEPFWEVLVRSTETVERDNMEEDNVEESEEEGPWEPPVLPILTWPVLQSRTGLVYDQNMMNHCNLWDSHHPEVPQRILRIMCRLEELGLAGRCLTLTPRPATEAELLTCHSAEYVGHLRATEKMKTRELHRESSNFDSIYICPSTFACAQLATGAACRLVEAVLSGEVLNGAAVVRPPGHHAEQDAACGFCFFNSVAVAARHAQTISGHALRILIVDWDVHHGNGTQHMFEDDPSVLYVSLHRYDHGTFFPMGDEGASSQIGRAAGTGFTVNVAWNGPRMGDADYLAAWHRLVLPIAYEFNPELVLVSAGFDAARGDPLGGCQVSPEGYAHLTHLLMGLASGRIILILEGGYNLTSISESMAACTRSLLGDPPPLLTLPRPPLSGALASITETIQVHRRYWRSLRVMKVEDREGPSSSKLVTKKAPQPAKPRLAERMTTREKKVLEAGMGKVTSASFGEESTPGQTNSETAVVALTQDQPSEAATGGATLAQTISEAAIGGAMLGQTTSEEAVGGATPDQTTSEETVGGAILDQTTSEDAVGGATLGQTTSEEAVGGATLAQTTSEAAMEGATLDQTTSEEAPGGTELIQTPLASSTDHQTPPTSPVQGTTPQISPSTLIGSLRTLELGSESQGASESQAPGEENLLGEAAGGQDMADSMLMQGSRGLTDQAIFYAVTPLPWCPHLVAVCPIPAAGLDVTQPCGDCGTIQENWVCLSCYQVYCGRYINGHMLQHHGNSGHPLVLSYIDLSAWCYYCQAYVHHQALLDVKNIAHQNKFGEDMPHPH
In short: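 Deacetylation was read by microfluidic mobility shift as product/(substrate+product) peak ratio and normalised to 0% and 100% inhibition controls. Reactions used 1 nM baculovirus-expressed full-length human HDAC6 and 2 μM labelled RHKK(Ac)-NH2 in pH 7.5 HEPES buffer with 1% DMSO at 25 °C. IC50 was from 4-parameter fits of 12 concentrations.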

| IC50 [nM] | Compound |
| --- | --- |
| ≤ 100 | Cc1ncccc1N1CC[C@]2(CCc3cc(C(=O)NO)ccc3C2)C1=O [Compound I-131, (R)-N-hydroxy-1′-(2-methylpyridin-3-yl)-2′-oxo-3,4-dihydro-1H-spiro[naphthalene-2,3′-pyrrolidine]-6-carboxamide] |
| ≤ 100 | Cc1ncccc1N1CC[C@@]2(CCc3cc(C(=O)NO)ccc3C2)C1=O [Compound I-132, (S)-N-hydroxy-1′-(2-methylpyridin-3-yl)-2′-oxo-3,4-dihydro-1H-spiro[naphthalene-2,3′-pyrrolidine]-6-carboxamide] |
| ≤ 100 | Cc1ccc(N2CC[C@]3(CCc4cc(C(=O)NO)ccc4C3)C2=O)cn1 [Compound I-133, (R)-N-hydroxy-1′-(6-methylpyridin-3-yl)-2′-oxo-3,4-dihydro-1H-spiro[naphthalene-2,3′-pyrrolidine]-6-carboxamide] |
| ≤ 100 | Cc1ccc(N2CC[C@@]3(CCc4cc(C(=O)NO)ccc4C3)C2=O)cn1 [Compound I-134, (S)-N-hydroxy-1′-(6-methylpyridin-3-yl)-2′-oxo-3,4-dihydro-1H-spiro[naphthalene-2,3′-pyrrolidine]-6-carboxamide] |
| ≤ 100 | Cc1cncc(N2CC[C@]3(CCc4cc(C(=O)NO)ccc4C3)C2=O)c1 [Compound I-135, (R)-N-hydroxy-1′-(5-methylpyridin-3-yl)-2′-oxo-3,4-dihydro-1H-spiro[naphthalene-2,3′-pyrrolidine]-6-carboxamide] |
| ≤ 100 | Cc1ccncc1N1CC[C@]2(CCc3cc(C(=O)NO)ccc3C2)C1=O [Compound I-136, (R)-N-hydroxy-1′-(4-methylpyridin-3-yl)-2′-oxo-3,4-dihydro-1H-spiro[naphthalene-2,3′-pyrrolidine]-6-carboxamide] |
| ≤ 100 | Cc1ccncc1N1CC[C@@]2(CCc3cc(C(=O)NO)ccc3C2)C1=O [Compound I-137, (S)-N-hydroxy-1′-(4-methylpyridin-3-yl)-2′-oxo-3,4-dihydro-1H-spiro[naphthalene-2,3′-pyrrolidine]-6-carboxamide] |
| ≤ 100 | O=C(NO)c1ccc2c(c1)CC[C@@]1(CCN(c3cncc(Cl)c3)C1=O)C2 [Compound I-138, (S)-1′-(5-chloropyridin-3-yl)-N-hydroxy-2′-oxo-3,4-dihydro-1H-spiro[naphthalene-2,3′-pyrrolidine]-6-carboxamide] |
| ≤ 100 | O=C(NO)c1ccc2c(c1)CC[C@]1(CCN(c3cncc(Cl)c3)C1=O)C2 [Compound I-139, (R)-1′-(5-chloropyridin-3-yl)-N-hydroxy-2′-oxo-3,4-dihydro-1H-spiro[naphthalene-2,3′-pyrrolidine]-6-carboxamide] |
| ≤ 100 | O=C(NO)c1ccc2c(c1)CC[C@]1(CCN(c3ccncc3Cl)C1=O)C2 [Compound I-140, (R)-1′-(3-chloropyridin-4-yl)-N-hydroxy-2′-oxo-3,4-dihydro-1H-spiro[naphthalene-2,3′-pyrrolidine]-6-carboxamide] |
| ≤ 100 | O=C(NO)c1ccc2c(c1)CC[C@@]1(CCN(c3ccncc3Cl)C1=O)C2 [Compound I-141, (S)-1′-(3-chloropyridin-4-yl)-N-hydroxy-2′-oxo-3,4-dihydro-1H-spiro[naphthalene-2,3′-pyrrolidine]-6-carboxamide] |
| ≤ 100 | COc1ccncc1N1CC[C@@]2(CCc3cc(C(=O)NO)ccc3C2)C1=O [Compound I-142, (S)-N-hydroxy-1′-(4-methoxypyridin-3-yl)-2′-oxo-3,4-dihydro-1H-spiro[naphthalene-2,3′-pyrrolidine]-6-carboxamide] |
| ≤ 100 | COc1cncc(N2CC[C@]3(CCc4cc(C(=O)NO)ccc4C3)C2=O)c1 [Compound I-143, (R)-N-hydroxy-1′-(5-methoxypyridin-3-yl)-2′-oxo-3,4-dihydro-1H-spiro[naphthalene-2,3′-pyrrolidine]-6-carboxamide] |
| ≤ 100 | COc1cncc(N2CC[C@@]3(CCc4cc(C(=O)NO)ccc4C3)C2=O)c1 [Compound I-144, (2S)-N-hydroxy-1′-(5-methoxypyridin-3-yl)-2′-oxo-3,4-dihydro-1H-spiro[naphthalene-2,3′-pyrrolidine]-6-carboxamide] |
| ≤ 100 | COc1ncccc1N1CC[C@]2(CCc3cc(C(=O)NO)ccc3C2)C1=O [Compound I-145, (R)-N-hydroxy-1′-(2-methoxypyridin-3-yl)-2′-oxo-3,4-dihydro-1H-spiro[naphthalene-2,3′-pyrrolidine]-6-carboxamide] |
| ≤ 100 | COc1ncccc1N1CC[C@@]2(CCc3cc(C(=O)NO)ccc3C2)C1=O [Compound I-146, (S)-N-hydroxy-1′-(2-methoxypyridin-3-yl)-2′-oxo-3,4-dihydro-1H-spiro[naphthalene-2,3′-pyrrolidine]-6-carboxamide] |
| ≤ 100 | COc1ccc(F)c(N2CC[C@@]3(CCc4cc(C(=O)NO)ccc4C3)C2=O)c1 [Compound I-147, (2S)-1′-(2-fluoro-5-methoxyphenyl)-N-hydroxy-2′-oxo-3,4-dihydro-1H-spiro[naphthalene-2,3′-pyrrolidine]-6-carboxamide] |
| ≤ 100 | COc1cc(F)cc(N2CC[C@@]3(CCc4cc(C(=O)NO)ccc4C3)C2=O)c1 [Compound I-148, (2S)-1′-(3-fluoro-5-methoxyphenyl)-N-hydroxy-2′-oxo-3,4-dihydro-1H-spiro[naphthalene-2,3′-pyrrolidine]-6-carboxamide] |
| ≤ 100 | COc1cc(N2CC[C@]3(CCc4cc(C(=O)NO)ccc4C3)C2=O)ccn1 [Compound I-149, (R)-N-hydroxy-1′-(2-methoxypyridin-4-yl)-2′-oxo-3,4-dihydro-1H-spiro[naphthalene-2,3′-pyrrolidine]-6-carboxamide] |
| ≤ 100 | COc1cc(N2CC[C@@]3(CCc4cc(C(=O)NO)ccc4C3)C2=O)ccn1 [Compound I-150, (S)-N-hydroxy-1′-(2-methoxypyridin-4-yl)-2′-oxo-3,4-dihydro-1H-spiro[naphthalene-2,3′-pyrrolidine]-6-carboxamide] |
| ≤ 100 | CN(C)c1ccc(N2CC[C@]3(CCc4cc(C(=O)NO)ccc4C3)C2=O)cn1 [Compound I-151, (2R)-1′-[6-(dimethylamino)pyridin-3-yl]-N-hydroxy-2′-oxo-3,4-dihydro-1H-spiro[naphthalene-2,3′-pyrrolidine]-6-carboxamide] |
| 100 to 500 | CN(C)c1ccc(N2CC[C@@]3(CCc4cc(C(=O)NO)ccc4C3)C2=O)cn1 [Compound I-152, (2S)-1′-[6-(dimethylamino)pyridin-3-yl]-N-hydroxy-2′-oxo-3,4-dihydro-1H-spiro[naphthalene-2,3′-pyrrolidine]-6-carboxamide] |
| ≤ 100 | O=C(NO)c1ccc2c(c1)CC[C@@]1(CCN(c3cncc(F)c3)C1=O)C2 [Compound I-153, (2S)-1′-(5-fluoropyridin-3-yl)-N-hydroxy-2′-oxo-3,4-dihydro-1H-spiro[naphthalene-2,3′-pyrrolidine]-6-carboxamide] |
| ≤ 100 | O=C(NO)c1ccc2c(c1)CC[C@@]1(CCN(c3ccc(F)cc3)C1=O)C2 [Compound I-154, (S)-1′-(4-fluorophenyl)-N-hydroxy-2′-oxo-3,4-dihydro-1H-spiro[naphthalene-2,3′-pyrrolidine]-6-carboxamide] |
| ≤ 100 | O=C(NO)c1ccc2c(c1)CC[C@@]1(CCN(c3ccc(F)c(F)c3)C1=O)C2 [Compound I-155, (S)-1′-(3,4-difluorophenyl)-N-hydroxy-2′-oxo-3,4-dihydro-1H-spiro[naphthalene-2,3′-pyrrolidine]-6-carboxamide] |
| ≤ 100 | O=C(NO)c1ccc2c(c1)CC[C@@]1(CCN(c3cccc(F)c3F)C1=O)C2 [Compound I-156, (S)-1′-(2,3-difluorophenyl)-N-hydroxy-2′-oxo-3,4-dihydro-1H-spiro[naphthalene-2,3′-pyrrolidine]-6-carboxamide] |
| ≤ 100 | O=C(NO)c1ccc2c(c1)CC[C@@]1(CCN(c3ccccc3F)C1=O)C2 [Compound I-157, (S)-1′-(2-fluorophenyl)-N-hydroxy-2′-oxo-3,4-dihydro-1H-spiro[naphthalene-2,3′-pyrrolidine]-6-carboxamide] |
